Data: US20220288077A1, “PROSTATITIS TREATMENT” (NATIONAL INSTITUTE OF BIOLOGICAL SCIENCES, priority 2019, published 2022)

System: carrageenan-induced male rat prostate disease model
Experiment: Carrageenan-induced male rat prostate disease model: representative RIP1, RIP3 and MLKL inhibitors
Format: in vivo
Conditions: list after the methods of the example; protocols based on RIPA-56
Procedure: Experimental protocols for the compounds of Table 1 were based on those used for RIPA-56. Each inhibitor was intraperitoneally or orally administrated to rat before carrageenan treatment, at the dose of 20 mg/kg to 100 mg/kg.
Each inhibitor was intraperitoneally or orally administrated to rat before carrageenan treatment, at the dose of 20 mg/kg to 100 mg/kg.
All the SD rats were randomly divided into different groups (n=8-10): control group, model group, and compounds-treated groups. For injection of carrageenan or saline, rats were anesthetized with 4% chloral hydrate and were fixed in a supine position. […] A small midline incision was made in the sterile area, then the bladder and the prostate carefully exposed. With a 30-gauge needle, 50 ul sterile suspension of 3% carrageenan (Sigma, MO, USA) or saline (sham group) was injected into both right and left ventral lobes of the prostate gland. […] While an equal amount of solvents were intraperitoneally and orally injected to control rats.

Row | SMILES | listed under heading Active RIP1 Inhibitors | other results
1 | Cc1ccc(CCCCN2C(=O)N[C@H](Cc3c[nH]c4c(Cl)cccc34)C2=O)cc1C#Cc1cnc2cccnn12 [Ponatinib-Nec1s, (R)-5-((7-chloro-1H-indol-3-yl)methyl)-3-(4-(3-(imidazo[1,2-b]pyridazin-3-ylethynyl)-4-methylphenyl)butyl)imidazolidine-2,4-dione] | Active | –
2 | Nc1ncnc2occ(-c3ccc(NC(=O)Nc4cc(C(F)(F)F)ccc4F)cc3)c12 [Cpd27, 1-(4-(4-aminofuro[2,3-d]pyrimidin-5-yl)phenyl)-3-(2-fluoro-5-(trifluoromethyl)phenyl)urea] | Active | –
3 | O=C(NCc1c(F)ccc(Cl)c1F)c1snnc1C1CC1 [N-(3-chloro-2,6-difluorobenzyl)-4-cyclopropyl-1,2,3-thiadiazole-5-carboxamide] | Active | –
4 | Cc1cccc2c(CC3NC(=O)N(C)C3=O)c[nH]c12 (stereo not shown) [3-methyl-5-((7-methyl-1H-indol-3-yl)methyl)imidazolidine-2,4-dione] | Active | –
5 | Cn1c(=O)c2c(nc(S(C)(=O)=O)n2C)n(C)c1=O [TC13-4, 1,3,7-trimethyl-8-(methylsulfonyl)-1H-purine-2,6(3H,7H)-dione] | – | listed under heading Active MLKL Inhibitors: Active
6 | CN1C(=O)[C@@H](NC(=O)c2n[nH]c(Cc3ccccc3)n2)COc2ccccc21 [GSK2982772, (S)-5-benzyl-N-(5-methyl-4-oxo-2,3,4,5-tetrahydrobenzo[b]-[1,4]oxazepin-3-yl)-1H-1,2,4-triazole-3-carboxamide] | Active | –
7 | CC(=O)N1CCC(C(=O)N2N=CC[C@H]2c2cc(F)cc(F)c2)CC1 [(S)-1-(4-(5-(3,5-difluorophenyl)-4,5-dihydro-1H-pyrazole-1-carbonyl)piperidin-1-yl)ethanone] | Active | –
8 | Cn1c(=O)c2c(nc(S(C)(=O)=O)n2C)n(CC#Cc2cccc(O)c2)c1=O [TC13-172, 3-(3-(3-hydroxyphenyl)prop-2-yn-1-yl)-1,7-dimethyl-8-(methylsulfonyl)-3,7-dihydro-1H-purine-2,6-dione] | – | listed under heading Active MLKL Inhibitors: Active
9 | C[C@H](NC(=O)c1snnc1C1CC1)c1c(F)cccc1Cl [(S)—N-(1-(2-chloro-6-fluorophenyl)ethyl)-4-cyclopropyl-1,2,3-thiadiazole-5-carboxamide] | Active | –
10 | C=CC(C)(C)C(=O)N1C(=O)C[C@H]1c1ccccc1 [(S)-1-(2,2-dimethylbut-3-enoyl)-4-phenylazetidin-2-one] | Active | –
11 | CN1C(=O)C(Cc2c[nH]c3ccccc23)NC1=S (stereo not shown) [Nec-1, 5-((1H-indol-3-yl)methyl)-3-methyl-2-thioxoimidazolidin-4-one] | Active | –
12 | CCC(C)(C)C(=O)N(O)Cc1cc(F)c(F)c(F)c1 [N-Hydroxy-2,2-dimethyl-N-(3,4,5-trifluorobenzyl)butanamide] | Active | –
13 | COc1nccnc1NS(=O)(=O)c1ccc(NC(=O)/C=C/c2ccc([N+](=O)[O-])s2)cc1 [Necrosulfonamide, (2E)-N-[4-[[(3-Methoxy-2-pyrazinyl)amino]sulfonyl]phenyl]-3-(5-nitro-2-thienyl)-2-propenamide] | – | listed under heading Active MLKL Inhibitors: Active
14 | Cn1c(=O)c2c(nc(S(=O)(=O)CC3CC3)n2C)n(CC#Cc2cccc(Cl)c2)c1=O [TC13-119, 3-(3-(3-chlorophenyl)prop-2-yn-1-yl)-8-((cyclopropylmethyl)sulfonyl)-1,7-dimethyl-3,7-dihydro-1H-purine-2,6-dione] | – | listed under heading Active MLKL Inhibitors: Active
15 | Cc1cc(-c2cnc(N)c3c(-c4ccc5scnc5c4)csc23)n(C)n1 [GSK'843, 3-(benzo[d]thiazol-5-yl)-7-(1,3-dimethyl-1H-pyrazol-5-yl)thieno[3,2-c]pyridin-4-amine] | – | listed under heading Active RIP3 Inhibitors: Active
16 | O=C1CCCc2ccc(Br)cc2N1 [8-bromo-4,5-dihydro-1H-benzo[b]azepin-2(3H)-one] | Active | –
17 | CCC(C)(C)C(=O)N(O)Cc1ccc(F)cc1F [N-(2,4-Difluorobenzyl)-N-hydroxy-2,2-dimethylbutanamide] | Active | –
18 | CCC(C)(C)C(=O)N(O)Cc1ccc(F)cc1 [N-(4-Fluorobenzyl)-N-hydroxy-2,2-dimethylbutanamide] | Active | –
19 | O=C(N[C@H]1COc2cc(Cl)ccc2NC1=O)c1nnc(Cc2ccccc2)[nH]1 [(S)-5-benzyl-N-(8-chloro-4-oxo-2,3,4,5-tetrahydrobenzo[b][1,4]oxazepin-3-yl)-4H-1,2,4-triazole-3-carboxamide] | Active | –
20 | CN1C(=O)[C@@H](NC(=O)c2cc(Cc3ccccc3)on2)COc2ccc(-c3nnn[nH]3)cc21 [(S)-5-benzyl-N-(5-methyl-4-oxo-7-(1H-tetrazol-5-yl)-2,3,4,5-tetrahydrobenzo[b][1,4]oxazepin-3-yl)isoxazole-3-carboxamide] | Active | –

Row | SMILES | listed under heading Active RIP1 Inhibitors | other results
21 | CN(c1ccc(NC(=O)Nc2ccc(OC(F)(F)F)cc2)cc1)c1ccnc(Nc2cccc(S(N)(=O)=O)c2)n1 [Compound 1, 3-((4-(methyl(4-(3-(4-(trifluoromethoxy)phenyl)ureido)phenyl)amino)pyrimidin-2-yl)amino)benzenesulfonamide] | – | listed under heading Active MLKL Inhibitors: Active
22 | CCC(C)(C)C(=O)N(O)Cc1ccccc1 [N-Benzyl-N-hydroxy-2,2-dimethylbutanamide] | Active | –
23 | CNC(=O)c1ccc2c(c1)ncn2-c1ccc(CC(=O)OC(C)(C)C)cc1 [GSK'840, tert-butyl 2-(4-(5-(methylcarbamoyl)-1H-benzo[d]imidazol-1-yl)phenyl)acetate] | – | listed under heading Active RIP3 Inhibitors: Active
24 | O=C(N1CCCC1c1cccc(F)c1)C1(C(F)(F)F)CCCC1 (stereo not shown) [(2-(3-fluorophenyl)pyrrolidin-1-yl)(1-(trifluoromethyl)cyclopentyl)methanone] | Active | –
25 | CC(C)S(=O)(=O)c1ccc2nccc(Nc3ccc4scnc4c3)c2c1 [GSK'872, N-(6-(isopropylsulfonyl)quinolin-4-yl)benzo[d]thiazol-5-amine] | – | listed under heading Active RIP3 Inhibitors: Active
26 | CCn1c(S(C)(=O)=O)nc2c1c(=O)n(C)c(=O)n2C [TC13-74, 7-ethyl-1,3-dimethyl-8-(methylsulfonyl)-1H-purine-2,6(3H,7H)-dione] | – | listed under heading Active MLKL Inhibitors: Active
27 | O=C(c1ccccc1)N1N=CC[C@H]1c1ccccc1 [(S)-phenyl(5-phenyl-4,5-dihydro-1H-pyrazol-1-yl)methanone] | Active | –
28 | CNc1cc(C#CCn2c(=O)n(C)c(=O)c3c2nc(S(=O)(=O)Cc2cc(OC)ccc2OC)n3C)ccn1 [TC13-127, 8-((2,5-dimethoxybenzyl)sulfonyl)-1,7-dimethyl-3-(3-(2-(methylamino)pyridin-4-yl)prop-2-yn-1-yl)-3,7-dihydro-1H-purine-2,6-dione] | – | listed under heading Active MLKL Inhibitors: Active
29 | CCC(C)(C)C(=O)N(O)Cc1cc(F)cc(F)c1F [N-Hydroxy-2,2-dimethyl-N-(2,3,5-trifluorobenzyl)butanamide] | Active | –
30 | O=C(N1CCCC1c1cccc(F)c1)C1(C(F)(F)F)CCC1 (stereo not shown) [(2-(3-fluorophenyl)pyrrolidin-1-yl)(1-(trifluoromethyl)cyclobutyl)methanone] | Active | –
31 | CCC(C)(C)C(=O)N(O)Cc1ccc(F)c(F)c1F [N-Hydroxy-2,2-dimethyl-N-(2,3,4-trifluorobenzyl)butanamide] | Active | –
32 | CC(C)(C)C(=O)N1N=CC[C@H]1c1ccccc1 [GSK963, (S)-2,2-dimethyl-1-(5-phenyl-4,5-dihydro-1H-pyrazol-1-yl)propan-1-on] | Active | –
33 | C#CCn1c(=O)n(C)c(=O)c2c1nc(S(C)(=O)=O)n2C [TC13-106, 1,7-dimethyl-8-(methylsulfonyl)-3-(prop-2-ynyl)-1H-purine-2,6(3H,7H)-dione] | – | listed under heading Active MLKL Inhibitors: Active
34 | CCC(C)(C)C(=O)N(O)Cc1ccc(F)c(F)c1 [N-(3,4-Difluorobenzyl)-N-hydroxy-2,2-dimethylbutanamide] | Active | –
35 | CN1C(=O)N[C@H](Cc2c[nH]c3c(Cl)cccc23)C1=O [(R)-5-((7-chloro-1H-indol-3-yl)methyl)-3-methylimidazolidine-2,4-dione] | Active | –
36 | CCC(C)(C)C(=O)N1C(=O)C[C@H]1c1ccccc1 [(S)-1-(2,2-dimethylbutanoyl)-4-phenylazetidin-2-one] | Active | –
37 | CC(=O)N1CCC(C(=O)N2N=CC[C@H]2c2ccccc2)CC1 [(S)-1-(4-(5-phenyl-4,5-dihydro-1H-pyrazole-1-carbonyl)piperidin-1-yl)ethanone] | Active | –
38 | CN1C(=O)[C@@H](NC(=O)c2nnc(Cc3ccccc3)[nH]2)COc2ccccc21 [(S)-5-benzyl-N-(5-methyl-4-oxo-2,3,4,5-tetrahydrobenzo[b][1,4]oxazepin-3-yl)-4H-1,2,4-triazole-3-carboxamide] | Active | –
39 | COc1ccc(OC)c(CS(=O)(=O)c2nc3c(c(=O)n(C)c(=O)n3C)n2C)c1 [TC13-58, (2,5-dimethoxybenzylsulfonyl)-1,3,7-trimethyl-1H-purine-2,6(3H,7H)-dione] | – | listed under heading Active MLKL Inhibitors: Active
40 | Cn1c(=O)c2c(nc(S(C)(=O)=O)n2C)n(CC#N)c1=O [TC13-107, 2-(1,7-dimethyl-8-(methylsulfonyl)-2,6-dioxo-1H-purin-3(2H,6H,7H)-yl)acetonitrile] | – | listed under heading Active MLKL Inhibitors: Active
